Values belong to the compound of their own block, whether it stands above or below them. The source made the active and inactive calls. No cut-off for these calls is given here.
Tests used:
[1] = Toxicity in Pseudomonas aeruginosa PAO1 infected C57Bl/6NCr mouse assessed as change in body weight at 100 mg/kg, po administered via gavage pretreated for 1 to 24 hrs followed by Pseudomonas aeruginosa PAO1 challenge and measured after 6 hrs; format: organism-based; details: in vivo
Pseudomonas aeruginosa [2] = test: Anti-inflammatory activity in Pseudomonas aeruginosa PAO1 infected C57Bl/6NCr mouse assessed as reduction in bacterial CFU in lungs at 10 mg/kg, po administered via gavage pretreated for 1 to 24 hrs followed by Pseudomonas aeruginosa PAO1 challenge and measured after 6 hrs; format: functional, organism-based
Pseudomonas aeruginosa [3] = test: Anti-inflammatory activity in Pseudomonas aeruginosa PAO1 infected C57Bl/6NCr mouse assessed as reduction in bacterial CFU in BAL at 10 mg/kg, po administered via gavage pretreated for 1 to 24 hrs followed by Pseudomonas aeruginosa PAO1 challenge and measured after 6 hrs; format: functional, organism-based
CuFi-1 [4] = test: Cytotoxicity against human CuFi1 cells assessed as reduction in cell viability incubated for 48 hrs by Muse cell analyser method; format: cell-based; details: cufi-1, 48 h
Pseudomonas aeruginosa [5] = test: Anti-inflammatory activity in Pseudomonas aeruginosa PAO1 infected C57Bl/6NCr mouse assessed as increase in alveolar macrophages in lungs at 10 mg/kg, po administered via gavage pretreated for 1 to 24 hrs followed by Pseudomonas aeruginosa PAO1 challenge and measured after 6 hrs; format: functional, organism-based
CuFi-1 [6] = test: Anti-inflammatory activity in human CuFi1 cells assessed as reduction in Pseudomonas aeruginosa PAO1-induced IL-8 mRNA expression level at 0.1 uM pretreated for 1 hr followed by Pseudomonas aeruginosa PAO1 challenge and measured after 4 hrs by RT-PCR analysis relative to control; format: functional; parameters: scale not given: the % may be the effect or the level left
Pseudomonas aeruginosa [7] = test: Anti-inflammatory activity in Pseudomonas aeruginosa PAO1 infected C57Bl/6NCr mouse assessed as reduction in amount of neutrophils in lungs at 100 mg/kg, po administered via gavage pretreated for 1 to 24 hrs followed by Pseudomonas aeruginosa PAO1 challenge and measured after 6 hrs; format: functional, organism-based
CuFi-1 [8] = test: Anti-inflammatory activity in human CuFi1 cells assessed as reduction in Pseudomonas aeruginosa PAO1-induced IL-8 mRNA expression level pretreated for 1 hr followed by Pseudomonas aeruginosa PAO1 challenge and measured after 4 hrs by RT-PCR analysis relative to control; format: functional
Homo sapiens = species on record: Homo sapiens; test: Anti-inflammatory activity in human Bronchial epithelial cells assessed as reduction in Pseudomonas aeruginosa PAO1-induced IL-8 mRNA expression level at 10 nM pretreated for 1 hr followed by Pseudomonas aeruginosa PAO1 challenge and measured after 4 hrs by RT-PCR analysis relative to control; format: functional
CuFi-1 [9] = test: Induction of apoptosis in human CuFi1 cells incubated for 48 hrs by Muse Annexin V based cell counter assay; details: cufi-1, 48 h
CuFi-1 [10] = test: Anti-inflammatory activity in human CuFi1 cells assessed as reduction in Pseudomonas aeruginosa PAO1-induced IL-8 mRNA expression level pretreated for 1 hr followed by Pseudomonas aeruginosa PAO1 challenge and measured after 4 hrs by RT-PCR analysis; format: functional, cell-based
Beta-glucosidase = target: T1, Beta-glucosidase (Homo sapiens, UniProt Q9HCG7)
T1 sequence (Q9HCG7 whole entry): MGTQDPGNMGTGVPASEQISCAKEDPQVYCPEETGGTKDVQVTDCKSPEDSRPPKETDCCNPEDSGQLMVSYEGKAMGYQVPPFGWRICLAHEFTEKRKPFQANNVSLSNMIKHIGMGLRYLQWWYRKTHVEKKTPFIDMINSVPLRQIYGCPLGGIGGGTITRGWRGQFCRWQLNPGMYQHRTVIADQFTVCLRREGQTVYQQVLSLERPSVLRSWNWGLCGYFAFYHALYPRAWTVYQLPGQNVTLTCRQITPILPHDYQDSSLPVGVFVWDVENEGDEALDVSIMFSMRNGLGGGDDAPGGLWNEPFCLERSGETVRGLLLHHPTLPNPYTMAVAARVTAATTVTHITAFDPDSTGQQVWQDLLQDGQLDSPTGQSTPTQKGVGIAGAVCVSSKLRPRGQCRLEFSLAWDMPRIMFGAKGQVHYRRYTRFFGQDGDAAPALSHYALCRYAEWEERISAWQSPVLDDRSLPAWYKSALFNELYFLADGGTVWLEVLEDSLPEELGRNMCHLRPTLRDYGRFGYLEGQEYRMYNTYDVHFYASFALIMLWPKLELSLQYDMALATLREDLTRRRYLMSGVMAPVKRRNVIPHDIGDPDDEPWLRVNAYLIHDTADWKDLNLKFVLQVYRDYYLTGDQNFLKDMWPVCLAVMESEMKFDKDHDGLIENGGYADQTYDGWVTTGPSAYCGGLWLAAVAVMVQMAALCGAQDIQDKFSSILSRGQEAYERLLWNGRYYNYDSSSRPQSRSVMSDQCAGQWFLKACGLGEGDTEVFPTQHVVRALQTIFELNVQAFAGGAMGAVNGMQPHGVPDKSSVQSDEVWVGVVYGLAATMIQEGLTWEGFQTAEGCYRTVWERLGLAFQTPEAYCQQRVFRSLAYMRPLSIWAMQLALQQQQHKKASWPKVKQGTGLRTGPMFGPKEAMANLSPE

[11] = target: T2, Beta-glucosidase (Homo sapiens) (UniProt Q9HCG7); details: SH-SY5Y, 1 nM
T2 sequence (whole entry): T1 sequence (Q9HCG7 whole entry)

[12] = target: T3, Lysosomal acid glucosylceramidase (Homo sapiens) (UniProt P04062); details: SH-SY5Y, 1 nM
T3 sequence (whole entry): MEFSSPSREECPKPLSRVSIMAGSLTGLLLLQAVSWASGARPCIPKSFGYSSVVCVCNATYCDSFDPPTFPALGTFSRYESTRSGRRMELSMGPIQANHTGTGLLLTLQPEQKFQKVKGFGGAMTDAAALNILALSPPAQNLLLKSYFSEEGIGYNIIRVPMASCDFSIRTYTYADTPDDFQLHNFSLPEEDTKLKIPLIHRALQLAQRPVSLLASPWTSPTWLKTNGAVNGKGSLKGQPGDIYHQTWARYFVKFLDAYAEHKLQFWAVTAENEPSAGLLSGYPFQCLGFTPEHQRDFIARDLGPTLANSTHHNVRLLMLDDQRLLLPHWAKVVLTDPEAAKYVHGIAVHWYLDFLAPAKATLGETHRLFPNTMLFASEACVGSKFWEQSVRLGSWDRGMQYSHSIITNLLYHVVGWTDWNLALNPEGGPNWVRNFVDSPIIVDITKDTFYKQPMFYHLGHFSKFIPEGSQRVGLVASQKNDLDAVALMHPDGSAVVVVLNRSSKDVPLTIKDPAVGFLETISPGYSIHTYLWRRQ

[13] = Toxicity in Pseudomonas aeruginosa PAO1 infected C57Bl/6NCr mouse assessed as change in body weight at 10 to 100 mg/kg, po administered via gavage pretreated for 1 to 24 hrs followed by Pseudomonas aeruginosa PAO1 challenge and measured after 6 hrs; format: organism-based; details: in vivo
Pseudomonas aeruginosa [14] = test: Anti-inflammatory activity in Pseudomonas aeruginosa PAO1 infected C57Bl/6NCr mouse assessed as reduction in amount of neutrophils recruited in BAL at 10 mg/kg, po administered via gavage pretreated for 1 to 24 hrs followed by Pseudomonas aeruginosa PAO1 challenge and measured after 6 hrs; format: functional, organism-based
Pseudomonas aeruginosa [15] = test: Anti-inflammatory activity in Pseudomonas aeruginosa PAO1 infected C57Bl/6NCr mouse assessed as reduction in bacteria detected in lungs dosed orally via gavage pretreated for 1 to 24 hrs followed by Pseudomonas aeruginosa PAO1 challenge and measured after 6 hrs; format: functional, organism-based
Pseudomonas aeruginosa [16] = test: Anti-inflammatory activity in Pseudomonas aeruginosa PAO1 infected C57Bl/6NCr mouse assessed as reduction in amount of bacteria recovered in airway at 10 mg/kg, po administered via gavage pretreated for 1 to 24 hrs followed by Pseudomonas aeruginosa PAO1 challenge and measured after 6 hrs; format: functional, organism-based

SMILES: CCCCN1CC(O)C(O)C(O)C1CO (racemic)
- Activity [1]: Non-Toxic
- Activity (Pseudomonas aeruginosa [2]): Active
- Activity (Pseudomonas aeruginosa [3]): Active
- Activity (CuFi-1 [4]): Non-Toxic
- Activity (Pseudomonas aeruginosa [5]): Active
- Activity (CuFi-1 [6]): 30%
- Activity (Pseudomonas aeruginosa [7]): inactive
- Imax (CuFi-1 [8]): 36%
- Activity (Homo sapiens): Active
- Activity (CuFi-1 [9]): Non-Toxic
- IC50 (CuFi-1 [10]): 0.95 nM

SMILES: CCCCCCCCCN1C[C@H](O)[C@@H](O)[C@H](O)[C@H]1CO
- Activity (CuFi-1 [4]): Non-Toxic
- Activity (CuFi-1 [6]): 8%
- Activity (CuFi-1 [9]): Non-Toxic

SMILES: OC[C@@H]1[C@@H](O)[C@H](O)[C@@H](O)CN1CCCCCOCC12CC3CC(CC(C3)C1)C2
- Activity (CuFi-1 [4]): Non-Toxic
- Activity (CuFi-1 [9]): Non-Toxic
- IC50 (CuFi-1 [10]): 1.84 nM

SMILES: OC[C@H]1[C@H](O)[C@@H](O)[C@H](O)CN1CCCCCOCC12CC3CC(CC(C3)C1)C2
- Activity (CuFi-1 [4]): Non-Toxic
- Activity (CuFi-1 [6]): 29%
- Activity (CuFi-1 [9]): Non-Toxic

SMILES: CCCCCCOCCCCCN1C[C@@H](O)[C@H](O)[C@@H](O)[C@@H]1CO
- Imax [12]: 65%
- IC50 (Beta-glucosidase): 36700 nM
- Imax [11]: 100%

SMILES: CCCCN1C[C@H](O)[C@@H](O)[C@H](O)[C@H]1CO
- Activity [13]: Non-Toxic
- Activity (CuFi-1 [4]): Non-Toxic
- Imax (CuFi-1 [8]): 50%
- Activity (CuFi-1 [9]): Non-Toxic
- IC50 (CuFi-1 [10]): 2000 nM

SMILES: CCCCN1C[C@@H](O)[C@H](O)[C@@H](O)[C@@H]1CO
- Activity [13]: Non-Toxic
- Activity (CuFi-1 [4]): Non-Toxic
- Activity (Pseudomonas aeruginosa [14]): Active
- Activity (CuFi-1 [6]): <=20%
- Activity (Pseudomonas aeruginosa [15]): inactive
- Activity (CuFi-1 [9]): Non-Toxic
- Activity (Pseudomonas aeruginosa [16]): Active

SMILES: CCCCCCCCCN1C[C@@H](O)[C@H](O)[C@@H](O)[C@@H]1CO
- Activity (CuFi-1 [4]): Non-Toxic
- Activity (CuFi-1 [6]): 16%
- Activity (CuFi-1 [9]): Non-Toxic

Continued, in another order:

- IC50 (CuFi-1 [10]): 0.6 nM
SMILES: CCCCCCCCCN1CC(O)C(O)C(O)C1CO (racemic)
- Activity (CuFi-1 [4]): Non-Toxic
- Activity (CuFi-1 [6]): 22%
- Imax (CuFi-1 [8]): 12%
- Activity (CuFi-1 [9]): Non-Toxic

- IC50 (Beta-glucosidase): 1 nM
- Imax [11]: 100%
SMILES: CCCCCCOCCCCCN1CC(O)C(O)C(O)C1CO (racemic)

- IC50 (CuFi-1 [10]): 1.84 nM
SMILES: OCC1C(O)C(O)C(O)CN1CCCCCOCC12CC3CC(CC(C3)C1)C2 (racemic)
- Activity (CuFi-1 [4]): Non-Toxic
- Activity (CuFi-1 [6]): 42%
- Imax (CuFi-1 [8]): 29%
- Activity (Homo sapiens): Active
- Activity (CuFi-1 [9]): Non-Toxic

- Imax [12]: 100%
- IC50 (Beta-glucosidase): 0.4 nM
- Imax [11]: 100%
SMILES: CCCCCCOCCCCCN1C[C@H](O)[C@@H](O)[C@H](O)[C@H]1CO
